Data published in paper PMC10191619, “Bilirubin gates the TRPM2 channel as a direct agonist to exacerbate ischemic brain damage” (Neuron, 2023).

Columns and labels:
[1] = target: T1, human TRPM2 (hTRPM2) channel (Homo sapiens, UniProt O94759); experiment: Single-channel outside-out recordings from HEK-hTRPM2 cells; format: cell-based
T1 construct: expressed in transfected cells; host or cells: HEK293 cells with tetracycline-inducible expression of hTRPM2 (HEK-hTRPM2)
Protocol: (§1) Human embryonic kidney 293 (HEK293) cells with tetracycline-inducible expression of human TRPM2 channel (hTRPM2) were cultured in a mixed medium containing DMEM/ F-12 (Gibco, USA) and 10% fetal bovine serum (Gibco, USA) as well as blasticidin (50 μg/ml, Invivogen, USA) and zeocin (0.4 mg/ml, Invivogen, USA). The expression of hTRPM2 was induced by substituting blasticin and zeocin for tetracycline (1 μg/ml, Sigma, USA) 24-48 hours before use. TRPM2 channel mutants were transiently expressed in HEK293T cells by transfection with using Lipofectamine 3000. Briefly, HEK293T cells were transiently transfected with cDNAs encoding the mutant hTRPM2 channel. The cDNA for GFP was co-transfected as a marker for identification of the transfected cells for electrophysiological experiments 16-24 hours after transfection. All the cells were seeded on 96-well coverslips (3 x 3 mm, WHB) and cultured at 37 °C under a humidified atmosphere containing 5% CO2.
Coronal cortical slices were transferred into the recording chamber and continuously perfused at room temperature with ACSF oxygenated with 95% O2 and 5% CO2. Cortical pyramidal neurons were visualized by an upright microscope (Carl Zeiss) equipped with a CCD monochrome video camera (IR-1000, DAGE-MTI) and identified by their localization in Layer V. Electrophysiology data were sampled (50 kHz) and lowpass filtered (5kHz four-pole Bessel filter) by a MultiClamp 700B dual channel amplifier (Molecular Devices). The patch electrodes were pulled from borosilicate capillary glass (1.5 mm outer diameter; 0.86 mm inner diameter; World Precision Instruments, USA) with a horizontal multi-step micropipette puller (Model, P-1000, Sutter Instrument). […] After forming >1 GΩ resistance seal in cell-attached configuration, we broke the patch membrane and kept the neurons at -64 mV and then performed whole-cell current-clamp recordings. Cells requiring holding current > -150 pA at -60 mV were discarded. The resting membrane potential (Vrest) was tested in I = 0 configuration. […] For whole-cell or single channel recordings from transfected HEK-293T cells, the coverslips were placed in a culture dish (35 × 35 mm, Sorfa) containing HEPES based extracellular solution (ECS) and recorded by patch-clamp technique. […] Each coverslip was recorded only once with different drug exposures. […] The excised patches were voltage-clamped from -80 mV to +80 mV (in 20 mV increasement) to generate the current-voltage (I-V) relationship of single channel currents from which their main conductance was calculated from the slope by linear regression of the mean current amplitude at different potentials. […]

[2] = tested on: tMCAO Trpm2+/+ mice; experiment: tMCAO ischemia model, infarct volume by TTC staining, Trpm2+/+ mice; format: in vivo, mouse; settings: for infarct volume: 24 h after tMCAO
[3] = target: T2, hTRPM2 K928A/D1069A double mutant (Homo sapiens, UniProt O94759, D1069A/K928A); experiment: Whole-cell patch-clamp, bilirubin-binding cavity double mutant; format: cell-based; settings: 9 μM extracellular
T2 construct: expressed in transfected cells; host or cells: HEK293T cells, transient transfection, GFP cDNA co-transfected as a separate marker
T2 sequence (O94759 whole entry K928A/D1069A): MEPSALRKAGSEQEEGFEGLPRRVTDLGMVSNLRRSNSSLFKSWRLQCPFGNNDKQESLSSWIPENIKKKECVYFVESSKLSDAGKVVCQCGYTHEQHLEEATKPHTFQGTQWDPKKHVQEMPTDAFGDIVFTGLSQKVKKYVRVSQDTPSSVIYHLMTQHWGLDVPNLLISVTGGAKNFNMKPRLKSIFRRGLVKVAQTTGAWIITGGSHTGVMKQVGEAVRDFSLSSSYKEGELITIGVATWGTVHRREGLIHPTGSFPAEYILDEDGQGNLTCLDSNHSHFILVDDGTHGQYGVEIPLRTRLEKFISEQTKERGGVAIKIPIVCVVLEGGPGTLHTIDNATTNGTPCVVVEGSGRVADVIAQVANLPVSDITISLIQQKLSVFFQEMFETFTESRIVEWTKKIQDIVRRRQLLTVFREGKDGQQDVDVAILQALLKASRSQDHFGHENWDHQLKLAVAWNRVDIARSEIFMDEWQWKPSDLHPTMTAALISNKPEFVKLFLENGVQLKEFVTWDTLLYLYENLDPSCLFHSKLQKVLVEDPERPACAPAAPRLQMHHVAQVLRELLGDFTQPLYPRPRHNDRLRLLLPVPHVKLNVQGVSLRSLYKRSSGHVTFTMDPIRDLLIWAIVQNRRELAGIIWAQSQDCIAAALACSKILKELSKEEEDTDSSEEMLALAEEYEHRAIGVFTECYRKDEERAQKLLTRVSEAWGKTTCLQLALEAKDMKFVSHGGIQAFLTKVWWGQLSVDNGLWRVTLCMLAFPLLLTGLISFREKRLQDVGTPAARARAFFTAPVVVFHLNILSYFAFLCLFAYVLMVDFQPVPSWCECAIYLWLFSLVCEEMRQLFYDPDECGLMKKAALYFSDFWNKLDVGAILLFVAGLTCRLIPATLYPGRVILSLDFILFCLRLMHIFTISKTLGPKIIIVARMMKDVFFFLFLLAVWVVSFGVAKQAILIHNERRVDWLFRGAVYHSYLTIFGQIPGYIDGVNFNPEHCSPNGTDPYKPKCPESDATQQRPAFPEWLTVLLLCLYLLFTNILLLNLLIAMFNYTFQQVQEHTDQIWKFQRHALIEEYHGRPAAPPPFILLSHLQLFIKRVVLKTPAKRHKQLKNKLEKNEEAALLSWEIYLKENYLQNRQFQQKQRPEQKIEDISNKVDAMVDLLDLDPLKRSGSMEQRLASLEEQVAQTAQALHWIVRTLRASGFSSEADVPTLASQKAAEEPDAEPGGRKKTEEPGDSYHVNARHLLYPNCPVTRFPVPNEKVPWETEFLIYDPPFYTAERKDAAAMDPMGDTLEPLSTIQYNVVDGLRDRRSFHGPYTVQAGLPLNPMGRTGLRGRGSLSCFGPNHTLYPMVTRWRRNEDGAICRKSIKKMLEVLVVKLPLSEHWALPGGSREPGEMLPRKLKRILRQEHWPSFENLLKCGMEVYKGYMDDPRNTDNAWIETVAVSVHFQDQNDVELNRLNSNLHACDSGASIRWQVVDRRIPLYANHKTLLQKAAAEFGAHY
Protocol: as §1, with “All the cells were seeded on 96-well coverslips (3 x 3 mm, WHB) and cultured at 37 °C under a humidified atmosphere containing 5% CO2.” left out
(§2) Coronal cortical slices were transferred into the recording chamber and continuously perfused at room temperature with ACSF oxygenated with 95% O2 and 5% CO2. […] For whole-cell or single channel recordings from transfected HEK-293T cells, the coverslips were placed in a culture dish (35 × 35 mm, Sorfa) containing HEPES based extracellular solution (ECS) and recorded by patch-clamp technique. […] Each coverslip was recorded only once with different drug exposures. […]

[4] = target: T3, TRPM2-ΔN/ΔC (Homo sapiens, UniProt O94759); experiment: Whole-cell patch-clamp, truncation mutant; format: cell-based; settings: bilirubin
T3 construct: expressed in transfected cells; host or cells: HEK293T cells, transient transfection, GFP cDNA co-transfected as a separate marker
T3 sequence (O94759 1-1449 isoform O94759-2): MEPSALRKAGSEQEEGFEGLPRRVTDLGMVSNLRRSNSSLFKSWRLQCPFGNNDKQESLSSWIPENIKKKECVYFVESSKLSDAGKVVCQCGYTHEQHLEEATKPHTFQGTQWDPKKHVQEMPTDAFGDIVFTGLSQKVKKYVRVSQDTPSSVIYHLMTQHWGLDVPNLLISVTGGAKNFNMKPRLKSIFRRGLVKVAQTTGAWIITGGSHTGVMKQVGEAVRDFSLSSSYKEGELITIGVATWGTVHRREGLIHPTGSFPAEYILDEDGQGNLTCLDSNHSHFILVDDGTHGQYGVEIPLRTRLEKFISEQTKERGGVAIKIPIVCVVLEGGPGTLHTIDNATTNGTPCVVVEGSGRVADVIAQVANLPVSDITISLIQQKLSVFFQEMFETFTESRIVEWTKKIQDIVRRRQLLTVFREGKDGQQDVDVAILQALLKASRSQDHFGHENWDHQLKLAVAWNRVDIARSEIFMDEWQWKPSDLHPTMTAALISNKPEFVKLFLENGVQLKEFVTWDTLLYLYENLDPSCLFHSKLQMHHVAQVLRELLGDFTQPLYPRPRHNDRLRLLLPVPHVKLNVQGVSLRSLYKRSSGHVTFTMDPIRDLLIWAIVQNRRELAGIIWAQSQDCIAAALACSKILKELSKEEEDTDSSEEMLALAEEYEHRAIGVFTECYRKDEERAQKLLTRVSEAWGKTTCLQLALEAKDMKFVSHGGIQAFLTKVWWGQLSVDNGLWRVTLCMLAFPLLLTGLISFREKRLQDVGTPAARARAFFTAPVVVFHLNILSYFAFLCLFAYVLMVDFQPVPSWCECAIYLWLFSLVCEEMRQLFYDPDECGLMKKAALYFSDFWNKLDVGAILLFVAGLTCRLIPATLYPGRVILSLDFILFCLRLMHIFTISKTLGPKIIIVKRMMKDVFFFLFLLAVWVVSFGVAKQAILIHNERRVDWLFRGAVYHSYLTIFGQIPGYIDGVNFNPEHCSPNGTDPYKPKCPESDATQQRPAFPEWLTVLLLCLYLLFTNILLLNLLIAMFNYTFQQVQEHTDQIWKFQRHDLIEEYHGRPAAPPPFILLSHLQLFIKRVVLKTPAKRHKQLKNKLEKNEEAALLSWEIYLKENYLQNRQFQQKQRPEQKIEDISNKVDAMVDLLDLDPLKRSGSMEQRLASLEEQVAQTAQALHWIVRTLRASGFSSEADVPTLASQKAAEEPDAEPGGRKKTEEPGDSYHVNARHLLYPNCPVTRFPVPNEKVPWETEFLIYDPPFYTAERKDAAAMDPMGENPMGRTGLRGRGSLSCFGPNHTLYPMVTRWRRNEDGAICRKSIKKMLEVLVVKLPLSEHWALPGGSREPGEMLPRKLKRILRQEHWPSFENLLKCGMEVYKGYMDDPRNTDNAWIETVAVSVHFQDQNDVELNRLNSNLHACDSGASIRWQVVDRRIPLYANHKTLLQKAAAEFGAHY
Protocol: as §1, with “All the cells were seeded on 96-well coverslips (3 x 3 mm, WHB) and cultured at 37 °C under a humidified atmosphere containing 5% CO2.” left out
as §2

[5] = Serum and CSF TB / UCB measurement after bilirubin injection and tMCAO; format: in vivo, mouse
Protocol: Trpm2^+/+, Trpm2^-/- and D1066A C57BL/6 mice were anesthetized by intraperitoneal injection of pentobarbital (55 mg/kg) 24 hours before tMCAO operation, and then fixed in the stereotactic setup (RWD Life Science). The skin above the skull from the base of the neck up to in between the eyes was cut open. A hole directly above the right ventricle was made with a grinding drill to allow insertion of the micro syringe into the lateral ventricle (coordinates: 1.1 mm laterally to the right and 0.5 mm posterior of the bregma, 2.5 mm deep). CSF was collected by using the micro injection pump (speed: 0.2 μl/min), after which the syringe was withdrawn, and the skin was sutured. The mice were removed from the stereotactic setup and 50 μl blood was taken through the orbital venous plexus. Mice were then placed on 37 °C heating blanket till they regained consciousness and returned to the cage. 1 or 24 hours after tMCAO, animals were anesthetized using a 2% isoflurane-oxygen mixture. CSF and blood were collected in the same way before sacrifice. All samples were centrifuged at 3000 r/min. Total bilirubin concentration of supernatants was measured with the Bilirubin Reagent Kit (Sigma). Samples were transferred to a 96-plates and mixed with reaction solution before measurements of their absorbance were made at 530 nm 10 minutes later. UCB concentration was measured with UnaG, a bilirubin-inducible fluorescent protein from Japanese eel muscle. For standard calibration curve of fluorescence intensity, a 100 μl reaction mixture containing 50 μl UnaG solution (1 μM) and 50 μl artificial bilirubin solution with concentration gradient (1.4278 μM, 0.7139 μM, 0.3573 μM, 0.1785 μM, 0.0893 μM and 0 μM) was prepared. After 10 minutes of reaction, the fluorescence intensity was detected by microplate reader (Synergy H1M, Bio Tek) with fluorescence filters for excitation and emission wavelengths of 485 and 528 nm, respectively. Serum and CSF samples were diluted 20-fold with PBS and fluorescence intensity was measured. The UCB levels were extrapolated from the standard curve.

[6] = target: T4, hTRPM2 R302A/R358A (Homo sapiens, UniProt O94759, R302A/R358A); experiment: Whole-cell patch-clamp, N-terminal ADPR-binding site mutant; format: cell-based; settings: bilirubin
T4 construct: expressed in transfected cells; host or cells: HEK293T cells, transient transfection (Lipofectamine 3000), GFP cDNA co-transfected as a separate marker
T4 sequence (O94759 whole entry R302A/R358A): as the sequence (O94759 whole entry K928A/D1069A) above, with R302A, R358A, A928K, A1069D counted along it
Protocol: as §1, with “All the cells were seeded on 96-well coverslips (3 x 3 mm, WHB) and cultured at 37 °C under a humidified atmosphere containing 5% CO2.” left out
as §2

[7] = tested on: layer 5 cortical pyramidal neurons from adult Trpm2−/− mice; experiment: Whole-cell current-clamp, intrinsic excitability in brain slices, Trpm2-/-; format: cell-based, mouse
[8] = tested on: cortical neurons in adult Trpm2+/+ brain slices; settings: bilirubin, 1 h of incubation, n = 6
[9] = tested on: hTRPM2 Ca2+ binding site mutants; experiment: Whole-cell patch-clamp, Ca2+ binding site mutants; format: cell-based, human; settings: mutations disabling binding sites for Ca2+
[10] = tested on: tMCAO Trpm2−/− mice; experiment: tMCAO ischemia model, infarct volume by TTC staining, Trpm2-/- mice; format: in vivo, mouse; settings: 24 h after tMCAO
[11] = tested on: cortical pyramidal neurons from D1066A KI mice; experiment: Whole-cell current-clamp, intrinsic excitability in brain slices, D1066A KI; format: cell-based, mouse; settings: prolonged perfusion time
[12] = target: T5, hTRPM2 R1433A (Homo sapiens, UniProt O94759, R1433A); experiment: Whole-cell patch-clamp, C-terminal NUDT9-H domain mutant; format: cell-based; settings: bilirubin
T5 construct: expressed in transfected cells; host or cells: HEK293T cells, transient transfection, GFP cDNA co-transfected as a separate marker
T5 sequence (O94759 whole entry R1433A): as the sequence (O94759 whole entry K928A/D1069A) above, with A928K, A1069D, R1433A counted along it
Protocol: as §1, with “All the cells were seeded on 96-well coverslips (3 x 3 mm, WHB) and cultured at 37 °C under a humidified atmosphere containing 5% CO2.” left out
as §2

[13] = target: T1, human TRPM2 (hTRPM2) channel; experiment: Whole-cell patch-clamp of TRPM2 currents (voltage ramps) in HEK-hTRPM2 cells; format: cell-based
Protocol: as §1
Coronal cortical slices were transferred into the recording chamber and continuously perfused at room temperature with ACSF oxygenated with 95% O2 and 5% CO2. Cortical pyramidal neurons were visualized by an upright microscope (Carl Zeiss) equipped with a CCD monochrome video camera (IR-1000, DAGE-MTI) and identified by their localization in Layer V. Electrophysiology data were sampled (50 kHz) and lowpass filtered (5kHz four-pole Bessel filter) by a MultiClamp 700B dual channel amplifier (Molecular Devices). The patch electrodes were pulled from borosilicate capillary glass (1.5 mm outer diameter; 0.86 mm inner diameter; World Precision Instruments, USA) with a horizontal multi-step micropipette puller (Model, P-1000, Sutter Instrument). […] After forming >1 GΩ resistance seal in cell-attached configuration, we broke the patch membrane and kept the neurons at -64 mV and then performed whole-cell current-clamp recordings. Cells requiring holding current > -150 pA at -60 mV were discarded. The resting membrane potential (Vrest) was tested in I = 0 configuration. Intrinsic excitability was tested by 500 ms long current steps between -200 and +400 pA with 50-pA increments in the presence of blockers for AMPA, NMDA, and GABA receptors (APV, 50 μM; NBQX, 10 μM; bicuculine 10 μM, strychnine 1 μM). Only one recording was conducted per brain slice. For whole-cell or single channel recordings from transfected HEK-293T cells, the coverslips were placed in a culture dish (35 × 35 mm, Sorfa) containing HEPES based extracellular solution (ECS) and recorded by patch-clamp technique. Cells were visualized by using the phase-contrast mode of an inverted microscope (TE-2000U; Nikon, Japan) and the patch pipette was positioned on the cells using a motorized micromanipulator (MP-225; Sutter) under the microscope. The transfected cells were voltage-clamped at 0 mV and subjected to voltage ramps from -100 mV to +100 mV (500 ms duration) every 5 s. The basal ramp current (i.e., the trace when the leak current is stable after membrane rupture) before channel activation were used for leak subtraction of all subsequent ramp currents. Each coverslip was recorded only once with different drug exposures. Single-channel recordings were carried out under outside-out configuration, using pipettes with resistance of 6-8 MΩ. The excised patches were voltage-clamped from -80 mV to +80 mV (in 20 mV increasement) to generate the current-voltage (I-V) relationship of single channel currents from which their main conductance was calculated from the slope by linear regression of the mean current amplitude at different potentials. Single-channel recordings of the cortical neurons were performed by adding 4-AP, TEA-Cl, CsCl2 and TTX to block sodium channel, potassium channel and calcium channel.
The cutting solution for brain slices contained the following (in mM): 87 NaCl, 75 sucrose, 2.5 KCl, 10 glucose, 1.25 NaH2PO4, 2 Na-pyruvate, 3 myo-inositol, 0.5 ascorbic acid, 26 NaHCO3,7 MgCl2, and 0.1 CaCl2 (pH 7.4; 290-320 mOsm).

[14] = tested on: hTRPM2 pore mutants (P983A, D987A, A1046C, N1049C); experiment: Whole-cell patch-clamp, pore mutants; format: cell-based, human; settings: bilirubin
[15] = tested on: layer 5 cortical pyramidal neurons from adult Trpm2+/+ mice; experiment: Whole-cell current-clamp, intrinsic excitability in brain slices, Trpm2+/+; format: cell-based, mouse

T1 sequence (O94759 whole entry): as the sequence (O94759 whole entry K928A/D1069A) above, with A928K, A1069D counted along it

O=C(O)c1ccccc1Nc1cccc(C(F)(F)F)c1 [FFA, flufenamic acid]
bilirubin-increased opening probability (Po) ([1]; FFA co-application, n = 12): reversed

C=CC1=C(C)/C(=C/c2[nH]c(Cc3[nH]c(/C=C4\NC(=O)C(C)=C4C=C)c(C)c3CCC(=O)O)c(CCC(=O)O)c2C)NC1=O [bilirubin, Bilirubin]
single-channel currents ([1]; bilirubin 300 nM, at −40 mV, outside-out): −2.02 ± 0.05 pA
opening probability (Po) ([1]; bilirubin perfusion, n = 12): significantly increased
slope conductance (single-channel) ([1]; bilirubin-driven current-voltage relationship, −80 to +80 mV, n = 4–7): 76.29 ± 7.85 pS
infarct volume ([2]; Trpm2+/+ mice, bilirubin 50 μg/g i.p. 30 min prior to 30 min tMCAO, n = 14): 55.31% ± 3.68%
severity of brain damage, Bil group vs Ctrl group ([2]; day 7 after tMCAO): significantly higher
infarct volume ([2]; female Trpm2+/+ mice, n = 4): 49.56 ± 7.40%
infarct volume ([2]; male Trpm2+/+ mice, n = 10): 57.61 ± 4.24%
activation of mutant TRPM2 currents [3]: completely lost its ability to activate
activation of mutant TRPM2 currents [4]: eliminated the activation of the TRPM2 channel by ADPR but not by bilirubin
serum and CSF UCB concentration, Bil group vs Ctrl group ([5]; D1066A KI mice, 24 h after tMCAO, n = 9): comparable
UCB concentration in serum and CSF, Bil group vs Ctrl group ([5]; Trpm2+/+ mice, 24 h after tMCAO): much higher
level of UCB, Bil group vs Ctrl group ([5]; Trpm2−/− mice, 24 h after tMCAO): did not change
TB levels in serum and CSF vs saline ([5]; mice injected with bilirubin 50 μg/g i.p., after tMCAO): markedly higher
activation of mutant TRPM2 currents [6]: remained responsive
excitability of cortical neurons ([7]; Trpm2−/− slices, bilirubin for 5 and 20 min, synaptic blockers present): absent
spike amplitude ([7]; Trpm2−/−, 20 min after bilirubin application, 2.5 nA current in 0.3 ms): significantly attenuated
mortality of cortical neurons [8]: 60.84% ± 2.13%
activation of TRPM2 currents by bilirubin [9]: did not prevent the activation
infarct volume ([10]; Trpm2−/− mice, bilirubin 50 μg/g i.p. 30 min prior to 30 min tMCAO, n = 15): 25.69% ± 4.46%
infarct volume ([10]; female Trpm2−/− mice, n = 5): 30.63 ± 8.71%
infarct volume ([10]; male Trpm2−/− mice, n = 10): 23.22 ± 5.25%
hyperexcitability in cortical pyramidal neurons [11]: did not induce the hyperexcitability
activation of mutant TRPM2 currents [12]: remained responsive
magnitude of the TRPM2 currents evoked by voltage ramps ([13]; bilirubin 9 μM, −100 to +100 mV, control solution): increased
activation of TRPM2 currents ([13]; bilirubin in the presence of PJ-34 (10 μM)): remained effective
TRPM2 currents ([13]; bilirubin, intracellular ADPR 5 μM (subthreshold)): increased TRPM2 currents
TRPM2 currents ([13]; bilirubin, intracellular ADPR 500 μM (saturated)): failed to do so
activation of the TRPM2 channel ([13]; bilirubin, intracellular BAPTA 30 mM replacing EGTA): remained capable of activating
Hillslope ([13]; concentration-response fit with the Hill equation, n = 4): 1.0
EC50 ([13]; concentration-response fit with the Hill equation, n = 4, read-out: EC50 for evoked TRPM2 currents): 1920 nM
activation of mutant TRPM2 currents [14]: effectively activated
excitability of cortical neurons ([15]; Trpm2+/+ slices, bilirubin for 5 and 20 min, synaptic blockers present): significantly increased
spike amplitude ([15]; Trpm2+/+, 20 min after bilirubin application, 2.5 nA current in 0.3 ms): significantly attenuated
